From paper PMC9247258, “Synthesis and Biological Activity Evaluation of 2-Cyanopyrrole Derivatives as Potential Tyrosinase Inhibitors” (Frontiers in Chemistry, 2022)

Assays:
mushroom tyrosinase [1] = target: T1, mushroom tyrosinase (Agaricus bisporus, UniProt C7FF04); experiment: Mushroom tyrosinase inhibitory assay (L-DOPA as substrate); assay type: biochemical; set-up: purchased Sigma (St. Louis, MO, United States); settings: for IC50: mushroom tyrosinase, L-DOPA substrate, absorbance 475 nm
Description: The mushroom tyrosinase activity assays of synthetic compounds were carried out according to the previously reported modification ([Qin et al., 2015]). L-DOPA was used as the substrate. Briefly, 800 μl of phosphate buffer (50 mM, pH 6.8), 50 μl of mushroom tyrosinase (666.67 U/ml, dissolved in PBS), and 50 μl of inhibitor (dissolved in DMSO) were placed in the plastic centrifuge tube. Then, 100 μl of L-DOPA (5 mM, dissolved in PBS) was added. Subsequently, its change in absorbance at 475 nm was measured in a time-dependent manner using a Beckman UV-650 spectrophotometer. The percentage inhibition was calculated by using [(OD0 - OD1)/OD0] × 100%, where OD0 was the absorbance without inhibitor, and OD1 was the absorbance with the inhibitor. The IC50 value of the potential compound was calculated from dose-response curves of percentage inhibition. Kojic acid was used as a standard control for comparison. All experiments were performed in duplicate.
Target sequence in this assay (C7FF04 1-392 limits assumed): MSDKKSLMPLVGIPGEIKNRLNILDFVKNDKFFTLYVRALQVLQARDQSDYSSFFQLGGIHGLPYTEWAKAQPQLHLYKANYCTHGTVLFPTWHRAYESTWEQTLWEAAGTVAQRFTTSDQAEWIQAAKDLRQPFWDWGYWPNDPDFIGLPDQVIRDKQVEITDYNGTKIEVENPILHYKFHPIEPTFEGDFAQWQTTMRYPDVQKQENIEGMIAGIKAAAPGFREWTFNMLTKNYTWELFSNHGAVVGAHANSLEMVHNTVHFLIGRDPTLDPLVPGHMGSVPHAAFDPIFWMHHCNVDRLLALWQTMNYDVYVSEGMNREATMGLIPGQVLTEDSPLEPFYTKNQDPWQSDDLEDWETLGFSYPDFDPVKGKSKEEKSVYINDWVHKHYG

mushroom tyrosinase [2] = target: T1, mushroom tyrosinase; experiment: Inhibition mechanism and kinetic analysis (v vs [E] plots, Lineweaver-Burk plot); assay type: biochemical
Description: Experiments were performed to analyze the inhibitory mechanism by the following method. For the text, the mushroom tyrosinase at a final concentration of 16.67–100.00 U/ml and L-DOPA at a final concentration of 0.5 mM were chosen. Then, the mushroom tyrosinase activity was measured in the presence of the inhibitor.
The inhibition type of the inhibitor on mushroom tyrosinase was evaluated by the Lineweaver–Burk plot, and the inhibition constants were obtained from the second plots of the apparent 1/Vmax and Km/Vmax against the inhibitor concentration. In this assay, mushroom tyrosinase at a final concentration of 33.33 U/ml and L-DOPA at a final concentration of 0.25–2 mM were used. The equation for the Lineweaver–Burk plot can be written as follows: 1/v−Km/Vm(1+[I]/KI)+1/Vm(1+[I]/KIS) where v is the reaction velocity, Km is the Michaelis constant, Vm is the maximal velocity, [I] is the concentration of the inhibitor, [S] is the concentration of the substrate, KI is the constant for the inhibitor binding with the free enzyme, and KIS is the constant for the inhibitor binding with the enzyme-substrate complex. KI and KIS were obtained from the slope or the vertical intercept vs. the inhibitor concentration, respectively.
Target sequence in this assay (C7FF04 2-392): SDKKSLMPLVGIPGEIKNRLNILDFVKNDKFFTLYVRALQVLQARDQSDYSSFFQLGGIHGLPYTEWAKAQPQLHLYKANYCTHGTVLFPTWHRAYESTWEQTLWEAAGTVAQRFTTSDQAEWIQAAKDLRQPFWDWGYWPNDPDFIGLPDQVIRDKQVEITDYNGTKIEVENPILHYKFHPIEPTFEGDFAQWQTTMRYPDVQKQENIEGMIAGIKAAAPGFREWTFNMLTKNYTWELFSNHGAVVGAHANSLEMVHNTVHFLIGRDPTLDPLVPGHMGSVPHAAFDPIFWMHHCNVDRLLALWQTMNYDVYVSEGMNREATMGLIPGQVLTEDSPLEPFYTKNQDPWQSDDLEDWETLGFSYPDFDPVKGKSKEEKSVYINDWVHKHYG

B16 melanoma cells = experiment: MTT assay, cell cytotoxicity; assay type: cell-based, mouse; settings: 24 h treatment, under a concentration of 100 μM
Description: B16 mouse melanoma cells were cultured in Dulbecco’s modified Eagle’s medium (DMEM) containing 10% fetal bovine serum and 1% penicillin/streptomycin at 37°C in a 5% CO2 incubator. B16 cells (100 µl) were plated in a 96-well plate (5 × 10^3 cells/well) for 24 h and then treated with a 100 µl complete medium containing A12 or kojic acid for 24 h. MTT solution (0.5 mg/ml, final concentration) was added to each well, and plates were incubated at 37°C for another 3 h. The absorbance was measured at 490 nm using a multi-detection microplate reader.

[3] = test system: tyrosinase in B16 melanoma cells; experiment: Cellular tyrosinase activity; assay type: cell-based; settings: Mus musculus, 48 h incubation
Description: B16 mouse melanoma cells were cultured in Dulbecco’s modified Eagle’s medium (DMEM) containing 10% fetal bovine serum and 1% penicillin/streptomycin at 37°C in a 5% CO2 incubator. The inhibitory activity of A12 on tyrosinase in B16 cells was evaluated. B16 cells (5 × 10^4 cells/well) were plated in 96-well plates and incubated for 24 h. A measure of 100 µl of complete medium including A12 or kojic acid was added for further incubation of 48 h. Then, cells were added to 50 µl Triton X-100 (1%) and allowed for freezing for 1 h at −80°C. After thawing at room temperature, 10 μl L-DOPA solutions (0.1%, w/v) were added and co-incubated for 1 h at 37°C. The absorbance at 405 nm was measured.

| SMILES | IC50 (mushroom tyrosinase [1]) [µM] | also measured |
| --- | --- | --- |
| Cn1ccc(-c2cccc(F)c2)c1CNC(=O)OC(C)(C)C [Compound B4, tert-Butyl ((3-(3-fluorophenyl)-1-methyl-1H-pyrrol-2-yl)methyl)carbamate] | > 200 | melting point: 103 to 104 °C |
| Cn1ccc(-c2ccc(Br)cc2)c1C#N [Compound A6] | 8.17 |  |
| Cn1ccc(-c2ccccc2F)c1C#N [Compound A2] | 8.72 |  |
| N#Cc1c(-c2ccc(Cl)cc2)cc2n1Cc1ccccc1C2 [Compound A17] | 5.57 |  |
| Cn1ccc(-c2cccc(Br)c2)c1C(N)=O [Compound B1, 3-(3-Bromophenyl)-1-methyl-1H-pyrrole-2-carboxamide] | > 200 |  |
| Cn1ccc(-c2ccccc2Br)c1C#N [Compound A4] | 8.47 |  |
| C=Cc1ccccc1-c1ccn(C)c1C#N [Compound A12] | 0.97 | inhibition type (mushroom tyrosinase [2]; Lineweaver-Burk double reciprocal plots, L-DOPA 0.25-2 mM, tyrosinase 33.33 U/ml): mixed-type; reversibility of tyrosinase inhibition (mushroom tyrosinase [2]; plots of initial velocity vs tyrosinase concentration, L-DOPA 0.5 mM): reversible; KIS, equilibrium constant for inhibitor binding with enzyme-substrate complex (mushroom tyrosinase [2]; second plot of apparent 1/Vmax vs inhibitor concentration): 1.00 µM; cell cytotoxicity on B16 melanoma cells (B16 melanoma cells): no cytotoxicity; inhibition at 100 µM [3]: 33.5%; times stronger than the reference inhibitor kojic acid (mushroom tyrosinase [1]; ratio of tyrosinase IC50 values, kojic acid vs compound): ~30 times |
| Cn1ccc(-c2ccc(Br)cc2)c1CNC(=O)OC(C)(C)C [Compound B3, tert-Butyl ((3-(4-bromophenyl)-1-methyl-1H-pyrrol-2-yl)methyl)carbamate] | > 200 | melting point: 109 to 113 °C |
| COc1ccc(-c2ccn(C)c2C#N)cc1 [Compound A8] | 89.2 |  |
| Cn1c(-c2ccccc2)cc(-c2ccc(Cl)cc2)c1C#N [Compound A15] | 87.3 |  |
| Cn1ccc(-c2ccccc2)c1C#N [Compound A1] | 7.42 |  |
| O=c1cc(CO)occ1O [Kojic acid, reference compound] |  | cell cytotoxicity on B16 melanoma cells (B16 melanoma cells): no cytotoxicity; inhibition at 100 µM [3]: 39.8% |
| CCn1c(C)cc(-c2ccccc2)c1C#N [Compound A13] | 4.46 |  |
| Cn1ccc(-c2ccc(Br)cc2)c1C(N)=O [Compound B2, 3-(4-Bromophenyl)-1-methyl-1H-pyrrole-2-carboxamide] | > 200 | melting point: 172 to 174 °C |
| COc1ccccc1-c1ccn(C)c1C#N [Compound A7] | 23.6 |  |
| N#Cc1c(-c2ccc(Cl)cc2)ccn1Cc1ccccc1 [Compound A14] | 80.5 |  |
| Cn1ccc(-c2ccccc2)c1CNC(=O)OC(C)(C)C [Compound B6, tert-Butyl ((1-methyl-3-phenyl-1H-pyrrol-2-yl)methyl)carbamate] | > 200 | melting point: 87 to 90 °C |
| Cn1ccc(-c2ccc(C(F)(F)F)cc2)c1C#N [Compound A9] | 12.4 |  |
| Cn1ccc(-c2cccc(F)c2)c1C#N [Compound A3] | 21.4 |  |
| N#Cc1c(-c2ccc(Cl)cc2)cc2n1CCCC2 [Compound A16] | 5.06 |  |
| Cn1ccc(-c2ccccc2F)c1CNC(=O)OC(C)(C)C [Compound B8, tert-Butyl ((3-(2-fluorophenyl)-1-methyl-1H-pyrrol-2-yl)methyl)carbamate] | > 200 | melting point: 81 to 84 °C |
| Cn1ccc(-c2cccc(Br)c2)c1C#N [Compound A5] | 16.5 |  |
| Cn1ccc(-c2cccc(Br)c2)c1CNC(=O)OC(C)(C)C [Compound B5, tert-Butyl ((3-(3-bromophenyl)-1-methyl-1H-pyrrol-2-yl)methyl)carbamate] | > 200 | melting point: 124 to 127 °C |
| Cn1ccc(-c2ccc(C(F)(F)F)cc2)c1CNC(=O)OC(C)(C)C [Compound B7, tert-Butyl ((1-methyl-3-(4-(trifluoromethyl)phenyl)-1H-pyrrol-2-yl)methyl)carbamate] | > 200 | melting point: 120 to 122 °C |
| COc1ccc(Br)cc1-c1ccn(C)c1C#N [Compound A11] | 2.11 |  |
| Cn1ccc(-c2cccc(Cl)c2Cl)c1C#N [Compound A10] | 4.83 |  |
